The record followed here is US8946266B2, “Substituted triazole and imidazole derivatives as gamma secretase modulators” (Janssen Pharmaceuticals, Inc., priority 2009, dated 2015).

Common to all, as to type: cell-based
Assay [1] concerns Aβtotal. In words: γ-secretase-modulating activity, Method 1: Aβtotal sandwich ELISA in supernatant of SKNBE2 cells carrying APP 695-wild type. Particulars: Table 3a, 18 h, averaged IC50 values. As to the method:
Pharmacology A) Screening of the Compounds of the Invention for γ-Secretase-Modulating Activity A1) Method 1
Screening was carried out using SKNBE2 cells carrying the APP 695-wild type, grown in Dulbecco's Modified Eagle's Medium/Nutrient mixture F-12 (DMEM/NUT-mix F-12) (HAM) provided by Gibco (cat no. 31330-38) containing 5% Serum/Fe supplemented with 1% non-essential amino acids. Cells were grown to near confluency.
The screening was performed using the assay as described in Citron et al (1997) Nature Medicine 3: 67. Briefly, cells were plated in a 96-well plate at about 10^5 cells/ml one day prior to addition of compounds. Compounds were added to the cells in Ultraculture (Lonza, BE12-725F) supplemented with 1% glutamine (Invitrogen, 25030-024) for 18 h. The media were assayed by two sandwich ELISAs, for Aβ42 and Aβtotal. Toxicity of the compounds was assayed by WST-1 cell proliferation reagent (Roche, 1 644 807) according to the manufacturer's protocol.
To quantify the amount of Aβtotal in the cell supernatant, samples and standards were added to a 6E10-coated plate. The plate was allowed to incubate overnight at 4° C. in order to allow formation of the antibody-amyloid complex. Following this incubation and subsequent wash steps a selective anti-Aβ-antibody conjugate (biotinylated 4G8) was added and incubated for a minimum of 1 h in order to allow formation of the antibody-Amyloid-antibody-complex. After incubation and appropriate wash steps, a Streptavidine-Peroxidase-Conjugate was added, followed 30 minutes later by an addition of Quanta Blu fluorogenic peroxidase substrate according to the manufacturer's instructions (Pierce Corp., Rockford, Ill.).
On the technique in general: In an ELISA, binding on a coated surface is turned into a signal by an enzyme label.

The test system of assay [2] is Aβ42. In words: γ-secretase-modulating activity, Method 2: Aβ42 Alphalisa in supernatant of SKNBE2 cells carrying APP 695-wild type (Table 3b). Particulars: overnight. In a few lines:
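Aβ42 in the supernatant was quantified by AlphaLISA sandwich (JRF/cAβ42/26 with JRF/AβN/25). Cells were wild-type APP695 SKNBE2, exposed to compound overnight at 37° C., 5% CO2. Data were normalised to untreated maximum and fitted with a four-parameter curve to give IC50.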
For orientation: In Alpha technology, singlet oxygen from a donor bead excites a nearby acceptor bead.

Assay [3] concerns Aβtotal. In words: γ-secretase-modulating activity, Method 2: Aβtotal Alphalisa in supernatant of SKNBE2 cells carrying APP 695-wild type (Table 3b). Particulars: overnight, read-out: IC50 Aβtot. An outline of the steps:
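Secreted Aβtotal was quantified by AlphaLISA pairing an N-terminal antibody (JRF/AβN/25) with biotinylated mid-region 4G8. Wild-type APP 695 SKNBE2 cells received serially varied compound overnight at 37 °C; IC50 came from a 4-parameter nonlinear regression of percent of control against log dose.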

In general, IC50 refers to the concentration needed to halve the response being measured.

Molecules are shown by their SMILES.

As to `COc1cc(-c2nc(-c3ccccc3)n(C)n2)ccc1-n1cnc(C)c1` [Compound 9], the results for the concentration for half-maximal inhibition (IC50) in assay [1] (Homo sapiens), in assay [2] (Homo sapiens) and in assay [3] (Homo sapiens) were > 30 µM, 0.603 µM and > 10 µM, respectively.
For `COc1cc(-c2nc(C)c(-c3ccccc3)[nH]2)ccc1-n1cnc(C)c1` [Compound 11], in that order: > 3 µM, 0.182 µM and > 10 µM.
As to `COc1cc(-c2nc(Nc3ccc(F)cc3C(F)(F)F)n(C)n2)ccc1-n1cnc(C)c1` [Compound 15], the values for the IC50 in assay [1], in assay [2] and in assay [3] were 11.5 µM, 0.05 µM and > 10 µM, respectively.
`COc1cc(-c2nc(Nc3cccc(C(F)(F)F)c3)n(C)n2)ccc1-n1cnc(C)c1` [Compound 146]: the IC50 in assay [2] came to 0.015 µM; in assay [3] it was 4.07 µM.
